Legend:
Assay type in all cases: biochemical
Human Thrombin = Human Thrombin (Homo sapiens, UniProt P00734); assay: Inhibition of amidase activity of thrombin (Kass); settings: apparent association constant, mean over a range of concentrations
Method: (§1) The assay is carried out by mixing 50 μL buffer (0.03M Tris, 0.15M NaCl, pH 7.4) with 25 μL of bovine thrombin or human thrombin solution (0.21 mg/mL of thrombostat bovine thrombin, Parke-Davis, or purified human thrombin, Enzyme Research Laboratories, South Bend, Ind., at about 8 NIH units/mL, in the same buffer) and 25 μL of test compound in a solvent (in 50% aqueous methanol, v:v). The 150 μL of an aqueous solution of the chromogenic substrate (at 0.25 mg/mL) are added and the rates of hydrolysis of the substrate are measured by monitoring the reactions at 405 nm for the release of p-nitroaniline. Standard curves are constructed by plotting free thrombin concentration against hydrolysis rate. The hydrolysis rates observed with test compounds are then converted to "free thrombin" values in the respective assays by use of the standard curves. The bound thrombin (bound to test compound) is calculated by subtracting the amount of free thrombin observed in each assay from the known initial amount of thrombin used in the assay. The amount of free inhibitor in each assay is calculated by subtracting the number of moles of bound thrombin from the number of moles of added inhibitor (test compound).
The Kass value is the hypothetical equilibrium constant for the reaction between thrombin and the test compound (I). [drawing 54]
(§2) Kass is calculated for a range of concentrations of test compounds and the mean value is reported in units of liter per mole.

factor Xa = target: T1, factor Xa (Homo sapiens, UniProt P00742); assay: Serine protease selectivity, chromogenic substrate (Kass), factor Xa; settings: substrate N-Benzoyl-Ile-Glu-Gly-Arg-p-nitroanilide
T1 construct: Human factors X, Xa, IXa, XIa, and XIIa are purchased; purchased Enzyme Research Laboratories, South Bend, Ind
T1 sequence (P00742 235-488 limits assumed): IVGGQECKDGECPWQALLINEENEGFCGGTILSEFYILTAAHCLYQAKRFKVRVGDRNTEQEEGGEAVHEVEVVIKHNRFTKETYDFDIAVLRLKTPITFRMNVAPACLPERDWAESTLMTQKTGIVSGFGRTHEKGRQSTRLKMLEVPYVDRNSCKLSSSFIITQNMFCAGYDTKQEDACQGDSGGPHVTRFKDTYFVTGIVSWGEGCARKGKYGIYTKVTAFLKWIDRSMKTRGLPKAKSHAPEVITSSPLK
T1 sequence (P00742 41-179 partner limits assumed): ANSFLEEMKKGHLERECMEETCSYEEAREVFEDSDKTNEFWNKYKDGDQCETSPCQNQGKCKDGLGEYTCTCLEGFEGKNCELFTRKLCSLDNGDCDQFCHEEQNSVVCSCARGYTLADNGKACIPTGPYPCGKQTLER
Method: as §1, §2
(§3) By substantially following the procedures described above for human thrombin, and using other human blood coagulation system serine proteases and proteases of the fibrinolytic system with the appropriate chromogenic substrates, identified below, selectivity of the compounds of the present invention with respect to the coagulation factor serine proteases and with respect to the fibrinolytic system serine proteases are evaluated as well as their substantial lack of interference with serine proteases of the fibrinolytic system. Thrombin inhibitors preferably should spare fibrinolysis induced by urokinase, tissue plasminogen activator (t-PA) and streptokinase. This would be important to the therapeutic use of such agents as an adjunct to streptokinase, t-PA or urokinase thrombolytic therapy and to the use of such agents as an endogenous fibrinolysis-sparing (with respect to t-PA and urokinase) antithrombotic agent. In addition to the lack of interference with the amidase activity of the fibrinolytic proteases, such fibrinolytic system sparing can be studied by the use of human plasma clots and their lysis by the respective fibrinolytic plasminogen activators.
Human factors X, Xa, IXa, XIa, and XIIa are purchased from Enzyme Research Laboratories, South Bend, Ind.; human urokinase from Leo Pharmaceuticals, Denmark; and recombinant activated Protein C (aPC) is prepared at Eli Lilly and Co. substantially according to U.S. Pat. No. 4,981,952. Chromogenic substrates: N-Benzoyl-Ile-Glu-Gly-Arg-p-nitroanilide (for factor Xa); N-Cbz-D-Arg-Gly-Arg-p-nitroanilide (for factor IXa assay as the factor Xa substrate); Pyroglutamyl-Pro-Arg-p-nitroanilide (for Factor XIa and for aPC); H-D-Pro-Phe-Arg-p-nitroanilide (for factor XIIa); and Pyroglutamyl-Gly-Arg-p-nitroanilide (for urokinase); are purchased from KabiVitrum, Stockholm, Sweden, or from Midwest Biotech, Fishers, Ind. Bovine trypsin is purchased from Worthington Biochemicals, Freehold, N.J., and human plasma kallikrein from Kabi Vitrum, Stockholm, Sweden. Chromogenic substrate H-D-Pro-Phe-Arg-p-nitroanilide for plasma kallikrein is purchased from Kabi Vitrum, Stockholm, Sweden. N-Benzoyl-Phe-Val-Arg-p-nitroanilide, the substrate for human thrombin and for trypsin, is synthesized according to procedures described above for the compounds of the present invention, using known methods of peptide coupling from commercially available reactants or purchased from Midwest Biotech, Fishers, Ind.

Plasmin = target: T2, Plasmin (Homo sapiens, UniProt P00747); assay: Serine protease selectivity, chromogenic substrate (Kass), plasmin; settings: substrate H-D-Val-Leu-Lys-p-nitroanilide
T2 construct: Human plasmin is purchased; purchased Boehringer Mannheim, Indianapolis, Ind
T2 sequence (P00747 581-810 limits assumed): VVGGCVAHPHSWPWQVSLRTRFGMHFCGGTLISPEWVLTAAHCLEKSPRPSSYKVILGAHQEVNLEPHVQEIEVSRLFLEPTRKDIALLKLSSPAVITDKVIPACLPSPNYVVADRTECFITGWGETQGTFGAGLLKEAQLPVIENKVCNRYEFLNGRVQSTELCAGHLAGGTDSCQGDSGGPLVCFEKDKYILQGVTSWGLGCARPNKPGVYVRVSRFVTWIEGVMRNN
T2 sequence (P00747 97-580 partner limits assumed): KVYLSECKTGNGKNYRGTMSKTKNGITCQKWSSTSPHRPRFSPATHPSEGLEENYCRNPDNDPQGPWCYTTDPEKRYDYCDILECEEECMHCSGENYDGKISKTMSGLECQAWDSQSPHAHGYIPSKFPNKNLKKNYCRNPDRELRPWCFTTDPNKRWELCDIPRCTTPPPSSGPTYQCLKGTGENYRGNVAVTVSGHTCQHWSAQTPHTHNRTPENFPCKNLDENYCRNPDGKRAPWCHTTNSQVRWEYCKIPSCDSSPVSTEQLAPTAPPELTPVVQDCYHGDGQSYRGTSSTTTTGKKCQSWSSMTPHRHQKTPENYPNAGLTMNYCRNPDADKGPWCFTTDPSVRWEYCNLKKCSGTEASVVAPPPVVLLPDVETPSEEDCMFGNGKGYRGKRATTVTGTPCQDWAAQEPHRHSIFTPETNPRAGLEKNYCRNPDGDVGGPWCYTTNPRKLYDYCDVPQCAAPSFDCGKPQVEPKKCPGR
Method: as §1, §2, §3
(§4) Human plasmin is purchased from Boehringer Mannheim, Indianapolis, Ind.; nt-PA is purchased as single chain activity reference from American Diagnostica, Greenwich, Conn.; modified-t-PA6 (mt-PA6) is prepared at Eli Lilly and Company by procedure known in the art (See, Burck, et al., J. Biol. Chem., 265, […] (1990). Plasmin chromogenic substrate H-D-Val-Leu-Lys-p-nitroanilide and tissue plasminogen activator (t-PA) substrate H-D-Ile-Pro-Arg-p-nitroanilide are purchased from Kabi Vitrum, Stockholm, Sweden.

t-PA = target: T3, t-PA (Homo sapiens, UniProt P00750); assay: Serine protease selectivity, chromogenic substrate (Kass), t-PA; settings: substrate H-D-Ile-Pro-Arg-p-nitroanilide
T3 construct: purchased American Diagnostica, Greenwich, Conn
T3 sequence (P00750 36-562): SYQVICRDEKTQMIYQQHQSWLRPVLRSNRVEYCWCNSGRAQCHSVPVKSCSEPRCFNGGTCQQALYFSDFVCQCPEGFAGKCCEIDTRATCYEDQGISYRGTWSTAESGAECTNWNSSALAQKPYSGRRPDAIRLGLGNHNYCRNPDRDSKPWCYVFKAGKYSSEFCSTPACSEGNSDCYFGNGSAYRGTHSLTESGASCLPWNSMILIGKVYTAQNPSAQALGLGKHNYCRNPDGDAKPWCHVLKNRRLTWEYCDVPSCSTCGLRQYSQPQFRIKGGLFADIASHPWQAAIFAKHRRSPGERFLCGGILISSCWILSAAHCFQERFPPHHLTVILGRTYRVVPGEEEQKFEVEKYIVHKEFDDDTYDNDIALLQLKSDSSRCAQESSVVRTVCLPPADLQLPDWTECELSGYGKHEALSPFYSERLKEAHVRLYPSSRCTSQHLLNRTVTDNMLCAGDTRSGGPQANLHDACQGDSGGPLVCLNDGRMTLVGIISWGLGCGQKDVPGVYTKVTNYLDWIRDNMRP
Method: as §1, §2, §3, §4

Human plasma [1] = assay: Human plasma anticoagulation, activated partial thromboplastin time (APTT); settings: concentration required to double the APTT, linear extrapolation
Method: (§5) Dog plasma and rat plasma is obtained from conscious mixed-breed hounds (either sex, Hazelton-LRE, Kalamazoo, Mich., U.S.A.) or from anesthetized male Sprague-Dawley rats (Harlan Sprague-Dawley, Inc., Indianapolis, Ind., U.S.A.) by venipuncture into 3.8 percent citrate. Fibrinogen is prepared from in-date ACD human blood as the fraction I-2 according to previous procedures and specifications. Smith, Biochem. J., 185, 1-11 (1980); and Smith, et al., Biochemistry, 11, 2958-2967 (1972). Human fibrinogen is also purchased as 98 percent pure/plasmin free from American Diagnostica, Greenwich, Conn. Coagulation reagents ACTIN, Thromboplastin, and Human plasma are from Baxter Healthcare Corp., Dade Division, Miami, Fla. Bovine thrombin from Parke-Davis ([…], Mich.) is used for coagulation assays in plasma.
(§6) Coagulation assay procedures are as previously described. Smith, et al., Thrombosis Research, 50, 163-174 (1988). A CoAScreener coagulation instrument (American LABor, Inc.) is used for all coagulation assay measurements. The prothrombin time (PT) is measured by adding 0.05 mL saline and 0.05 mL Thromboplastin-C reagent to 0.05 mL test plasma. The activated partial thromboplastin time (APTT) is measured by incubation of 0.05 mL test plasma with 0.05 mL Actin reagent for 120 seconds followed by 0.05 mL CaCl2 (0.02M). The thrombin time (TT) is measured by adding 0.05 mL saline and 0.05 mL thrombin (10 NIH units/mL) to 0.05 mL test plasma. The compounds of formula I are added to human or animal plasma over a wide range of concentrations to determine prolongation effects on the APTT, PT, and TT assays. Linear extrapolations are performed to estimate the concentrations required to double the clotting time for each assay.

Human plasma [2] = assay: Human plasma anticoagulation, prothrombin time (PT); settings: concentration required to double the PT, linear extrapolation
Method: as §5, §6

| Enzyme Kass, Human Thrombin (Human Thrombin) [L/mol × 10^6] | Enzyme Kass, Xa (factor Xa) [L/mol × 10^6] | Enzyme Kass, Plasmin (Plasmin) [L/mol × 10^6] | Enzyme Kass, t-PA (t-PA) [L/mol × 10^6] | SMILES | 2x Clotting time, APTT (Human plasma [1]) | 2x Clotting time, PT (Human plasma [2]) |
| --- | --- | --- | --- | --- | --- | --- |
| 340 | 1.6 | 1.8 | 0.053 | Cl.Cl.N=C(N)NCCC[C@@H](C=O)NC(=O)[C@@H]1CC2CCCCC2N1C(=O)[C@H]1CCCCN1 (relative stereo) [Example 7, N-[(1-D-homoprolyl-cis-octahydro-1H-indol-2(S)-yl)carbonyl]-L-argininal dihydrochloride] | 450 ng/mL | 1,500 ng/mL |
| 50 | 3.0 | 2.9 | 0.069 | Cl.Cl.N=C(N)NCCC[C@H](C=O)NC(=O)[C@@H]1C[C@H](Oc2ccccc2)CN1C(=O)[C@H]1CCCCN1 (relative stereo) [Example 8, D-homoprolyl-L-cis-4-phenoxy-L-prolyl-D-argininal dihydrochloride] | 520 ng/mL | 1,900 ng/mL |
| 37 | 1.6 | 1.7 | 0.055 | Cl.Cl.Cl.N=C(N)NCCC[C@@H](C=O)NC(=O)[C@@H]1C[C@H](Oc2cccnc2)CN1C(=O)[C@H]1CCCCN1 (relative stereo) [Example 9, D-hPro-Pro(4-cis-(3-pyridyloxy))-ArgH.3 HCl] | 880 ng/mL | 3,100 ng/mL |
| 28 | 0.66 | 1.4 | 0.086 | Cl.Cl.Cl.N=C(N)NCCC[C@@H](C=O)NC(=O)[C@@H]1C[C@H](Oc2ccc(N)cc2)CN1C(=O)[C@H]1CCCCN1 (relative stereo) [Example 11, D-hPro-Pro(4-cis-(4-NH2-phenoxy))-ArgH.3 HCl] | 1,400 ng/mL | 5,900 ng/mL |

The remaining lines, values behind:

| SMILES | Enzyme Kass, Human Thrombin (Human Thrombin) [L/mol × 10^6] | Enzyme Kass, Xa (factor Xa) [L/mol × 10^6] | Enzyme Kass, Plasmin (Plasmin) [L/mol × 10^6] | Enzyme Kass, t-PA (t-PA) [L/mol × 10^6] | 2x Clotting time, APTT (Human plasma [1]) | 2x Clotting time, PT (Human plasma [2]) |
| --- | --- | --- | --- | --- | --- | --- |
| C[C@H]1C[C@@H](C(=O)N[C@H](C=O)CCCNC(=N)N)N(C(=O)[C@H]2CCCCN2)C1.Cl.Cl (relative stereo) [Example 1, D-homoprolyl-L-cis-4-methyl-prolyl-L-argininal dihydrochloride] | 220 | 1.4 | 0.86 | 0.077 | 510 ng/mL | 1,700 ng/mL |
| CC[C@H]1C[C@@H](C(=O)N[C@H](C=O)CCCNC(=N)N)N(C(=O)[C@H]2CCCCN2)C1.Cl.Cl (relative stereo) [Example 2, D-homoprolyl-L-cis-4-ethyl-prolyl-L-argininal dihydrochloride] | 230 | 1.7 | 1.0 | 0.097 | 460 ng/mL | 1,500 ng/mL |
| CCC[C@H]1C[C@@H](C(=O)N[C@H](C=O)CCCNC(=N)N)N(C(=O)[C@H]2CCCCN2)C1.Cl.Cl (relative stereo) [Example 3, D-hPro-Pro(4-cis-n-propyl)-ArgH.2 HCl] | 27 | 1.7 | 0.66 | 0.14 | 610 ng/mL | 2,900 ng/mL |
| Cl.Cl.N=C(N)NCCC[C@@H](C=O)NC(=O)[C@@H]1C[C@H](Cc2ccccc2)CN1C(=O)[C@H]1CCCCN1 (relative stereo) [Example 5, D-hPro-Pro(4-cis-benzyl)-ArgH.2 HCl] | 110 | 5.8 | 2.1 | 0.057 | 510 ng/mL | 1,600 ng/mL |

From patent US5599793A, “Antithromobotic agents” (Eli Lilly and Company, priority 1995, dated 1997)
